Measurements published in US10434098B2, “Deuterated dehydrophenylahistin compounds and preparation method thereof and use thereof in preparation of anti-tumor drugs” (MARINE BIOMEDICAL RESEARCH INSTITUTE OF QINGDAO CO., LTD., priority 2015, dated 2019).

How the values were obtained:
Format in all cases: cell-based
[1] = system: human skin cancer cell strain A431; experiment: MTT inhibition ratio on tumor cells A431; conditions: for Inhibition ratio (%): 72 h, MTT; for activity of inhibiting tumors compared with positive control: A431, summary of Table 2
Description: (§1) The inhibition ratio of the selected compounds on tumor cells A431 and Jurkat is measured via the MTT analytical method.
(§2) 1) Cell strains: human skin cancer cell strain A431 and human acute T cell leukemia cell Jurkat. The ells grow in an RPMI-1640 culture medium and high glucose DMEM (Gibco BRL, Rockville, Md., USA)+10% fetal calf serum (containing 2 mM L-glutamine, penicillin and streptomycin), and putting them into an incubator at 37° C. (5% CO2-95% air) for growing, carrying out digestive passage with 0.25% trypsin, and changing the solution every 1 to 2 days.
(§3) 2) The dissolution and dilution of compounds: according to the molecular weight and mass of the compounds, preparing into a 10 mM of mother solution respectively using DMSO (SIGMA), and diluting to the required concentration of 100 μM (DMSO content≤3%o) with the RPMI-1640 culture medium. Storing the diluted drugs at temperature of −20° C.
(§4) 1) Cell inoculation: Taking cells in the logarithmic phase, after digestion with pancreatin, the cells disperse into single cells, counting, adjusting cell suspension to […], inoculating in the 96-well plates with 180 μL in each well, and making the amount of the inoculated cells is 4.0×10^3 cells/well. After cell attachment, adding the fresh culture media containing compounds with different concentrations respectively, making the concentrations of the compounds reach 12.5 nM and 6.25 nM, setting 3 duplicate wells for each concentration, operating in absence of light, and adjusting the content of DMSO in each concentration to be consistent.
(§5) 2) After drug incubation for 72 h, adding 20 μL of MTT (3-[4,5-dimethylthiazol-2-yl]-2,5-diphenyltetrazolium bromide, Sigma; 5 mg/mL) into each well, incubating in a incubator for 4 h, removing supernate, adding 150 μL of DMSO into each well for dissolving, and measuring absorbancy at 570 nm using the microplate reader. According to the formula: Inhibition ratio=[(A570 control well−A570 administration well)/A570 control well]×100%, to calculate the inhibition ratio of each concentration, and the result is shown in the table 2.

[2] = system: human acute T cell leukemia cell Jurkat; experiment: MTT inhibition ratio on tumor cells Jurkat; conditions: for Inhibition ratio (%): 72 h, MTT; for activity of inhibiting tumors compared with positive control: summary of Table 2
Description: as §1, §2, §3, §4, §5

[3] = system: intracellular microtubulin of human epidermal carcinoma A431; experiment: High content imaging analysis of microtubulin (immunofluorescent staining, Alexa 488); conditions: 12.5 nM, 24 h; for Alexa488 stained fluorescence intensity of microtubulin in the cells: versus blank and DMSO control, FIG. 3/4; for microtubulin distribution and cellular morphology / Alexa488 fluorescence intensity compared with the positive control Plinabulin: A431 cells; for microtubulin distribution and cellular morphology: FIG. 3; for Alexa488 fluorescence intensity compared with the positive control Plinabulin: FIG. 4
Description: Plinabulin (dehydro-phenylahistin) is used as positive control, and concentration is set as 12.5 nM. According to the data in earlier-stage, 3 kinds of samples are selected, i.e., compounds 1, 2 and 3. The concentrations of all samples are set as 12.5 nM. According to the experiment method for specific immunofluorescent staining (Alexa 488), the effect of the compounds 1, 2 and 3 on the expression of intracellular microtubulin of human epidermal carcinoma A431 is detected via the high content imaging analysis system. 1) Taking cells in the logarithmic phase, after digestion with pancreatin, the cells disperse into single cells counting, inoculating in the 96-well plates at 1.2×10^4 cells/well, putting at temperature of 37° C., culturing in a 5% CO2 incubator for 24 h until cell attachment. 2) After cell attachment, for experiment group, adding the fresh culture medium containing compounds with different concentrations respectively into each well, making the concentrations of the compounds reach 12.5 nM, and setting 3 duplicate wells for each concentration. In the control group, adding a solvent DMSO with equimultiple diluting, selecting Plinabulin (dehydro-phenylahistin) as a positive drug, setting 3 duplicate wells in each group, and culturing in an incubator at temperature of 37° C. under 5% CO2 saturated humidity for 24 h. 3) Absorbing the culture medium after 24 h, and washing with PBS for 3 times; fixing with 4% paraformaldehyde for 30 min, absorbing paraformaldehyde, and washing with PBS for 3 times; sealing with 0.3% Triton X-100 and 5% BSA for 30 min, absorbing, and washing with PBS for 3 times; adding Tubulin antibody (mouse antibody, diluting in a ratio of 1:200), and staying overnight at temperature of 4° C.; absorbing, and washing with PBS for 3 times; adding DyLight 488-goat anti mouse IgG (diluting in a ratio of 1:1000), and placing at room temperature for 90 min 4) Photographing analysis of high content imaging analysis system

SMILES | Inhibition ratio (%) ([1]; A431, concentration 12.5 nM) | activity of inhibiting tumors compared with positive control [1] | Inhibition ratio (%) ([2]; concentration 12.5 nM) | activity of inhibiting tumors compared with positive control [2] | Alexa488 stained fluorescence intensity of microtubulin in the cells [3] | microtubulin distribution and cellular morphology [3] | Alexa488 fluorescence intensity compared with the positive control Plinabulin [3] | Inhibition ratio (%) ([1]; A431, concentration 6.25 nM) | Inhibition ratio (%) ([2]; concentration 6.25 nM)
[2H]/C(c1nc[nH]c1C(C)(C)C)=c1/[nH]c(=O)/c(=C/c2c([2H])c([2H])c([2H])c([2H])c2[2H])[nH]c1=O [Compound 1, (3Z,6Z)-3-(phenyl-2,3,4,5,6-d5)-methylene-6-((5-(tert-butyl)-1H-imidazol-4-yl)methylene-d)piperazine-2,5-dione] | 95.04 | close to that of the positive control Plinabulin | 86.46 | close to that of the positive control Plinabulin | obviously enhanced | aggregation in microtubulin and a significant change in cellular morphology | higher than the positive control in the effect | – | –
[2H]/C(c1ccccc1)=c1/[nH]c(=O)/c(=C(\[2H])c2nc[nH]c2C(C)(C)C)[nH]c1=O [Compound 2, (3Z,6Z)-3-(phenylmethylene-d)-6-((5-(tert-butyl)-1H-imidazol-4-yl)methylene-d)piperazine-2,5-dione] | 94.11 | close to that of the positive control Plinabulin | 79.65 | close to that of the positive control Plinabulin | obviously enhanced | aggregation in microtubulin and a significant change in cellular morphology | higher than the positive control in the effect | – | –
[2H]/C(c1nc[nH]c1C(C)(C)C)=c1/[nH]c(=O)/c(=C/c2ccccc2)[nH]c1=O [Compound 3, (3Z,6Z)-3-(phenylmethylene)-6-((5-(tert-butyl)-1H-imidazol-4-yl)methylene-d)piperazine-2,5-dione] | 93.79 | close to that of the positive control Plinabulin | 86.09 | close to that of the positive control Plinabulin | obviously enhanced | aggregation in microtubulin and a significant change in cellular morphology | higher than the positive control in the effect | – | –
[2H]/C(c1ccccc1)=c1/[nH]c(=O)/c(=C/c2nc[nH]c2C(C)(C)C)[nH]c1=O [Compound 4, (3Z,6Z)-3-(phenylmethylene-d)-6-((5-(tert-butyl)-1H-imidazol-4-yl)methylene)piperazine-2,5-dione] | 91.85 | close to that of the positive control Plinabulin | 82.33 | close to that of the positive control Plinabulin | – | – | – | 53.90 | 16.04
[2H]c1c([2H])c([2H])c(/C=c2\[nH]c(=O)/c(=C/c3nc[nH]c3C(C)(C)C)[nH]c2=O)c([2H])c1[2H] [Compound 5, (3Z,6Z)-3-(phenyl-2,3,4,5,6-d5)-methylene-6-((5-(tert-butyl)-1H-imidazol-4-yl)methylene)piperazine-2,5-dione] | 66.00 | close to that of the positive control Plinabulin | 16.86 | close to that of the positive control Plinabulin | – | – | – | – | –
[2H]/C(c1c([2H])c([2H])c([2H])c([2H])c1[2H])=c1/[nH]c(=O)/c(=C/c2nc[nH]c2C(C)(C)C)[nH]c1=O [Compound 6, (3Z,6Z)-3-(phenyl-2,3,4,5,6-d5)-methylene-d-6-((5-(tert-butyl)-1H-imidazol-4-yl)methylene)piperazine-2,5-dione] | 79.28 | close to that of the positive control Plinabulin | 73.40 | close to that of the positive control Plinabulin | – | – | – | 16.17 | 7.70
[2H]/C(c1nc[nH]c1C(C)(C)C)=c1/[nH]c(=O)/c(=C(\[2H])c2c([2H])c([2H])c([2H])c([2H])c2[2H])[nH]c1=O [Compound 7, (3Z,6Z)-3-(phenyl-2,3,4,5,6-d5)-methylene-d-6-((5-(tert-butyl)-1H-imidazol-4-yl)methylene-d)piperazine-2,5-dione] | 87.73 | close to that of the positive control Plinabulin | 64.49 | close to that of the positive control Plinabulin | – | – | – | – | –
CC(C)(C)c1[nH]cnc1/C=c1\[nH]c(=O)/c(=C/c2ccccc2)[nH]c1=O [Plinabulin, reference compound] | 91.81 | – | 79.69 | – | obviously enhanced | aggregation in microtubulin and a significant change in cellular morphology | – | 63.25 | 13.75
